Measurements published in US9357792B2, “Fermented cereal product obtained by fermentation of rye bran with a Lactobacillus curvatus strain” (priority 2001, dated 2016).

Columns and labels:
[1] = test system: H. pylori CCUG17875 binding to the Lewis b antigen; assay: RIA inhibition assay: H. pylori pre-treated with product, then binding to 125I-labeled Lewis b conjugate; design: species or system Helicobacter pylori; conditions: pretreated with 2 mM for 1 hour; FIG. 1B
[2] = test system: H. pylori CCUG17875 adherence to human gastric mucosa; assay: H. pylori adherence in situ to histo-sections of human gastric mucosa; type: cell-based, Helicobacter pylori; conditions: after pretreatment with 2 mM
Protocol: Pretreatment of strain CCUG 17875 with soluble Lewis b antigen, with L. curvatus fermented rye bran and with ferric quinate is shown. Here, bacterial binding to 10 different gastric surface epithelium regions were estimated (value p<0.001(***), value p<0.01(**), value p<0.05(*)).
Bacterial adherence in situ was performed as described by Falk et al., 1993. Human biopsy samples of healthy gastric tissue were obtained from the Division for Gastroenterology, Norrland University Hospital, Umea, Sweden. The biopsies were taken from the antrum part of the stomach, then they were fixed in 4% buffered formalin and finally they were embedded in paraffin wax. Sections were stained with hematoxylin and eosin following standard procedures. H. pylori were first labeled with FITC, and bacterial adherence to the gastric mucous was then analyzed by the ability of L. curvatus-fermented rye-bran to inhibit bacterial adherence to re-hydrated histo-sections of human gastric epithelial cells in situ. For comparative inhibition analyzes, H. pylori was pre-incubated with Lewis b conjugate (10 μg/mL), and fermented rye-bran (1 mL) for 1 hour at room temperature. Then, as described above, the H. pylori bacterial cells were applied to the histo-sections. […]

Compound: O=C(O)[C@]1(O)C[C@@H](O)[C@@H](O)[C@H](O)C1 [Quinic Acid, reference compound]
- inhibition of H. pylori binding to the Lewis b antigen [1]: no inhibition

Compound: Ferric Quinate
- inhibition of H. pylori binding to the Lewis b antigen [1]: 69%
- adherence of strain CCUG17875 to the gastric tissue section epithelium [2]: similarly much reduced
